Source: patent publication US20020137767A1, “Methods for treating addictive disorders” (priority 1999, published 2002)
Where “and” joins values, the source holds several entries; their conditions need not be identical. Identical values can stand only once.

Key:
[1] = test system: stereotypy induced by d-amphetamine sulphate; conditions: ip; d-amphetamine sulphate 10 mg/kg sc; male CD rats; cited from earlier work
[2] = test system: locomotion induced by d-amphetamine sulphate; conditions: male CD rats, cited from earlier work
[3] = test system: D1-like receptors; conditions: po; male CD rats; cited from earlier work
[4] = test system: D2-like receptors; conditions: po; male CD rats; cited from earlier work
[5] = test system: catalepsy; conditions: ip; male CD rats; cited from earlier work
[6] = test system: D1-receptors; conditions: po pretreatment; D2-mediated atypical jerking; male SD rats; cited from earlier work
[7] = test system: 5-HT2 receptors; conditions: po; male CD rats; cited from earlier work
[8] = test system: discriminative stimulus effects of cocaine; experiment: Cocaine drug discrimination, pretreatment protocol (Example 2); type: in vivo, rhesus monkeys (Macaca mulatta)
Procedure: During the week, all food was delivered after the experimental session, whereas at weekends, food was delivered between 9 a.m. and noon. Water was freely available at all times.
A computer, located in a separate room, controlled the operant panels and data collection.
Discrimination Training: Discrimination training was conducted 5 days per week during daily sessions composed of multiple cycles. Each cycle consisted of a 15 min time-out period followed by a 5 min response period. During the time-out, all stimulus lights were off, and responding had no scheduled consequences. During the response period, the right and left response keys were transilluminated red or green, and monkeys could earn up to 10 food pellets by responding under a FR 30 schedule of food presentation. For one monkey, the left key was illuminated green and the right key was illuminated red; the colors of the response-keys were reversed for the other three monkeys. The center key was not illuminated at any time and responding on it had no scheduled consequences.
On training days, monkeys were given either saline or 0.40 mg/kg cocaine, i.m., 10 min before the response period. Following the administration of saline, responding on only the green key (the saline-appropriate key) produced food, whereas following administration of 0.40 mg/kg cocaine, only responding on the red key (the drug-appropriate key) produced food. Responses on the inappropriate key reset the FR requirement on the appropriate key. Sessions consisted of 1 to 5 cycles and, if cocaine was administered, this occurred only during the last cycle. Thus, training days consisted of 0 to 5 saline cycles followed by 0 or 1 cocaine cycle.
During each response period, 3 dependent variables were determined:
1) Percent injection-appropriate responding prior to delivery of the first reinforcer.
2) Percent injection-appropriate responding for the entire response period.
Monkeys meeting the following criteria during the training day immediately proceeding the test day and in at least 6 of 7 consecutive training sessions before this, were used for discrimination testing:
1) the percent injection-appropriate responding prior to delivery of the first reinforcer was ≧80% for all cycles;
2) the percent injection-appropriate responding for the entire cycle was ≧90% for all cycles;
3) Response rates during saline training cycles were >0.5 responses per second.
Discrimination Testing: Test sessions were identical to training sessions except that responding on either key produced food, and the test compound was administered using a Pretreatment Protocol. In this protocol, a cumulative dose-effect curve for cocaine (0.013-1.3 mg/kg) was determined either alone or following pretreatment with the test compound, which was administered 20 min before the first dose of cocaine.
Mean data from saline and drug cycles during the training day immediately proceeding the initial test day served as the control data for the subsequent test day.

[9] = test system: cocaine self-administration; experiment: Cocaine self-administration, FR 30, drug component (Example 3)
[10] = test system: food-maintained behavior; experiment: Food-maintained responding, FR 30, food components (Example 3)
[11] = i.m. 20 min before session, cocaine 0.003 mg/kg/inj, individual monkeys, hydrobromide

COc1cc2c(cc1O)C(C1(c3ccccc3Cl)CC1)N(C)CC2 (single isomer, unassigned; (+)) [BTS 73 947, (+)-1-[1-(2-chlorophenyl)cyclopropyl]-7-hydroxy-6-methoxy-2-methyl-1,2,3,4-tetrahydroisoquinoline]
ED50 to inhibit stereotypy induced by d-amphetamine sulphate [1]: 2.4 mg/kg | duration of action ([2]; behavioral models): > 6 h | time of peak effect post-dose ([2]; behavioral models): 4 h | ED50 to inhibit locomotion induced by d-amphetamine sulphate ([2]; ip, d-amphetamine sulphate 2.5 mg/kg sc): 0.7 mg/kg | fold greater potency against limbic DA function (locomotion vs stereotypy) ([2]; ratio of stereotypy and locomotion ED50, ip): ~3.5 fold | ED50 for protection of D1-like receptors from EEDQ inactivation [3]: 1 mg/kg | protection of D2-like receptors from EEDQ inactivation [4]: no effect | ED50 to induce catalepsy [5]: 25.4 mg/kg | ratio of ED50 to induce catalepsy to ED50 to inhibit amphetamine locomotion [5]: 36 | ED15 (dose induced 15 jerks in the 15 min test period) [6]: 3.4 mg/kg | protection of 5-HT2 receptors from EEDQ inactivation [7]: no effect

Br.COc1cc2c(cc1O)C(C1(c3ccccc3Cl)CC1)N(C)CC2 (single isomer, unassigned; (+)) [test compound, (+)-1-[1-(2-chlorophenyl)cyclopropyl]-7-hydroxy-6-methoxy-2-methyl-1,2,3,4tetrahydroisoquinoline hydrobromide]
effect on responding (response rate) during first one to three cycles ([8]; 0.01 and 0.032 mg/kg, in combination with 0.013 and 0.04 mg/kg cocaine): eliminated responding | fold increase in the cocaine ED50 value ([8]; pretreatment 0.01 mg/kg, monkey 2): 3 fold | effect on the cocaine discrimination dose-effect curve ([8]; pretreatment 0.01 mg/kg, the other three monkeys (1, 3, 4)): no effect | effect on the cocaine discrimination dose-effect curve ([8]; pretreatment 0.032 mg/kg, all four monkeys): rightward shifts | ED50 for cocaine after pretreatment with test compound 0.01 mg/kg ([8]; test compound 0.01 mg/kg 20 min before first cocaine dose, individual monkeys 1-4, hydrobromide): 0.24 mg/kg and 0.23 mg/kg and 0.72 mg/kg | ED50 for cocaine after pretreatment with test compound 0.032 mg/kg ([8]; test compound 0.032 mg/kg 20 min before first cocaine dose, individual monkeys 1-4, hydrobromide): 0.72 mg/kg and 0.071 mg/kg | ED50 for decreasing response rates maintained by cocaine (Drug component) [9, 11]: 2 µg/kg and 1 µg/kg and 4 µg/kg | rightward shift of the peak of the dose-effect function for cocaine self-administration ([9]; lower pretreatment dose (0.003 mg/kg), on average): 3 fold | surmountability of treatment effects by increased self-administration of higher unit doses of cocaine ([9]; pretreatment 0.003 and 0.01 mg/kg, any monkey): not surmounted | ED50 ([10]; Macaca mulatta, read-out: ED50 for decreasing response rates maintained by food (Food #1, preceded the drug component), i.m. 20 min before session, cocaine 0.003 mg/kg/inj, individual monkeys): 3 µg/kg | ED50 for decreasing response rates maintained by food (Food #1, preceded the drug component) [10, 11]: 2 µg/kg | ED50 for decreasing response rates maintained by food (Food #2, followed the drug component) [10, 11]: 11 µg/kg and 6 µg/kg and 2 µg/kg | effect on food-maintained response rates in the first component of food availability ([10]; pretreatment 0.01 mg/kg): appreciably decreased

COC(=O)[C@H]1[C@@H](OC(=O)c2ccccc2)C[C@@H]2CC[C@H]1N2C.Cl [Cocaine, Cocaine hydrochloride, reference compound]
substitution for training stimulus (cocaine-appropriate responding) ([8]; cocaine alone 0.4 mg/kg (training dose), all monkeys): Complete substitution | effect on response rates ([8]; cocaine alone 1.3 mg/kg): decreased response rates | ED50 for cocaine (50% cocaine-appropriate responding), Cocaine Alone ([8]; cumulative cocaine 0.013-1.3 mg/kg i.m., no pretreatment, individual monkeys 1-4): 0.23 mg/kg
